The nature of this data set: RP, Waters ACQUITY UPLC BEH C18, 100 × 1 mm, 1.7 µm, -1 °C, 0.15 mL/min, estimated dead time 0.33 min; A: water + 0.1% formic acid; B: acetonitrile + 0.1% formic acid; gradient (min/%B) 0/5 8/25 14/70 20/95 23/95. The following applies: stereoisomer not certain.

Consider `CC(C)(CO)C(O)C(=O)NCCC(=O)O` (centres undefined), for which the LC retention time was 0.7 min.
The figure for `C[N+](C)(C)CCO` is 0.6 min.
Then `NC(COP(=O)(O)O)C(=O)O` (centres undefined), with 0.6 min.
For `CC(=O)NC1C(OP(=O)(O)OP(=O)(O)OCC2OC(n3ccc(=O)[nH]c3=O)C(O)C2O)OC(CO)C(O)C1O` (centres undefined), the LC retention time is 0.7 min.
As for `CC(C)C(N)C(=O)O` (centres undefined), the LC retention time is 0.7 min.
The figure for `CS(=O)CCC(N)C(=O)O` (centres undefined) is 0.6 min.
For `NC(=O)NCCCC(N)C(=O)O` (centres undefined), the LC retention time is 0.5 min.
`CC(N)C(=O)O` (centres undefined): the LC retention time is 0.7 min.
For `CC(=O)NC(CCC(=O)O)C(=O)O` (centres undefined), the LC retention time was 0.6 min.
Consider `CSCC1OC(n2cnc3c(N)ncnc32)C(O)C1O` (centres undefined), for which the LC retention time is 0.7 min.
Regarding `C[S+](CCC(N)C(=O)O)CC1OC(n2cnc3c(N)ncnc32)C(O)C1O` (centres undefined), the LC retention time was 0.6 min.
Then `Cc1cn(C2CC(O)C(CO)O2)c(=O)[nH]c1=O` (centres undefined), with 0.7 min; and `CC(C)CC(N)C(=O)O` (centres undefined), with 0.7 min; and `CCCC(=O)OC(CC(=O)[O-])C[N+](C)(C)C` (centres undefined), with 0.6 min.
The figure for `NC(=NCCCC(N)C(=O)O)NC(CC(=O)O)C(=O)O` (centres undefined) is 0.6 min; for `CC(C(=O)O)C(O)(CC(=O)O)C(=O)O` (centres undefined) it is 4.3 min; for `Cc1cn(C2CC(O)C(COP(=O)(O)O)O2)c(=O)[nH]c1=O` (centres undefined) it is 1.2 min.
Then `C[N+](C)(C)CCOP(=O)(O)O`, with 0.7 min.
On to `CNCC(=O)O`, for which the LC retention time is 0.7 min.
With `Cc1c[nH]c(=O)[nH]c1=O`, the LC retention time was 0.7 min.
Then `NC(=O)c1cccnc1`, with 0.8 min; and `CCC(=O)OC(CC(=O)[O-])C[N+](C)(C)C` (centres undefined), with 0.6 min; and `CC(C)CC(=O)OC(CC(=O)[O-])C[N+](C)(C)C` (centres undefined), with 0.7 min.
As for `NC(CCO)C(=O)O` (centres undefined), the LC retention time is 0.9 min.
With `Cc1ncccc1C(N)=O`, the LC retention time is 0.7 min.
The figure for `CSCCC(NC(C)=O)C(=O)O` (centres undefined) is 0.6 min; for `CC(=O)NC(CCC(N)=O)C(=O)O` (centres undefined) it is 0.6 min.
The figure for `NC(Cc1c[nH]c2ccccc12)C(=O)O` (centres undefined) is 1.2 min; for `C[N+](C)(C)CC(O)CC(=O)[O-]` (centres undefined) it is 0.7 min; for `CC(=O)OC(CC(=O)[O-])C[N+](C)(C)C` (centres undefined) it is 0.7 min.
The figure for `NC(CCC(=O)NC(CS)C(=O)NCC(=O)O)C(=O)O` (centres undefined) is 3 min.
As to `Nc1ccnc(=O)[nH]1`, the LC retention time is 4 min.
In the case of `Nc1ccccc1C(=O)CC(N)C(=O)O` (centres undefined), the LC retention time is 0.9 min.
`NC(=O)CCC(N)C(=O)O` (centres undefined): the LC retention time is 0.8 min.

Values taken from the RepoRT retention time repository (doi:10.1021/acs.analchem.9b05135).
